From PMC10100771, “A Novel CMY Variant Confers Transferable High-Level Resistance to Ceftazidime-Avibactam in Multidrug-Resistant Escherichia coli” (Microbiology Spectrum, 2023) come the findings set out here.

For one data set, the system named is E. coli strain AR13438. The data set can be described thus: MIC by agar dilution, clinical isolate AR13438. Conditions: Escherichia coli; AR13438, clinical E. coli isolate (blaCMY-178, blaTEM-1, blaCTX-M-27); agar dilution. In kind it is cell-based, Escherichia coli. How it is done:
(§1) Antimicrobial susceptibility testing was performed and interpreted according to the Clinical and Laboratory Standards Institute (CLSI) guidelines and breakpoints (M100, 31st edition) by the agar dilution method. E. coli ATCC 25922 and K. pneumoniae ATCC 700603 served as control strains.
(§2) The antibiotics we used included meropenem (Hanhui Pharmaceutical Co., Ltd., China), imipenem (Merck Sharp & Dohme Corp., USA), cefepime (Jiangsu Hengrui Pharmaceutical Co., Ltd., China), piperacillin (Suzhou Erye Pharmaceutical Co., Ltd., China), ceftazidime (Guangdong Jincheng Jinsu Pharmaceutical Co., Ltd., China), tazobactam (Meilunbio, China), avibactam (MedChemExpress, USA), aztreonam (Sigma-Aldrich, USA), amikacin (Meilunbio), cefuroxime (Esseti Farmaceutici S.r.l., Italy), fosfomycin (Harbin Pharmaceutical Group Co., Ltd. China), levofloxacin (Daiichi Sankyo Company Limited, Beijing, China), and cefotaxime (North China Pharmaceutical Hebei Huamin Pharmaceutical Co., Ltd., China).

Data set [1] deals with K. pneumoniae isolate KPCZA02. The data set can be described thus: microbe, parasite or virus in culture. The following applies: Klebsiella pneumoniae. Type of data set: cell-based. As for the experimental part: as §1
The subject of a further data set is E. coli DH5α. Put plainly: MIC by agar dilution, E. coli DH5α. Type of data set: cell-based. Conditions: Escherichia coli. As for the experimental part: as §1, §2
In general terms: In agar dilution the substance is mixed into plates at graded concentrations.

A further data set has as its system E. coli DH5α-pCR2.1. The data set can be described thus: MIC by agar dilution, DH5α with blank vector pCR2.1. In kind it is cell-based. The following applies: Escherichia coli. How it is done:
as §1, §2
(§3) The blaCMY cloning was performed using a TA cloning kit (Invitrogen, Shanghai, China). The blaCMY-178 gene combined with its predicted promoter was amplified from isolate AR13438. Then, the blaCMY-178 gene was cloned into the linearized vector pCR2.1 using T4 DNA ligase (Invitrogen). The blaCMY-172 gene was cloned from KPCZA02 with the same method. The resulting plasmids were chemically transformed into E. coli DH5α. The positive transformants were identified by blue-white screening in MH agar containing 50 μg/mL kanamycin and were further confirmed by Sanger sequencing. The pCR2.1 blank vector was also transformed into E. coli DH5α as a control. The primers used for cloning were CMY-F and CMY-R (see Table S2 in the supplemental material). Relative CMY expression was measured by reverse transcription-quantitative PCR as described previously ([34]). Specific quantitative PCR (qPCR) primers (q-recA-F/R and q-CMY-F/R) were designed (Table S2).

In data set [2] the test system is E. coli DH5α-pCR2.1-CMY-2. The data set can be described thus: MIC by agar dilution, transformant containing blaCMY-2. In kind it is cell-based. Conditions: Escherichia coli.
The subject of data set [3] is E. coli DH5α-pCR2.1-CMY-178. The data set can be described thus: MIC by agar dilution, transformant containing blaCMY-178. In kind it is cell-based, Escherichia coli. As for the experimental part: as §1, §2, §3
Data set [4] has as its system E. coli DH5α-pCR2.1-CMY-172. Put plainly: MIC by agar dilution, transformant containing blaCMY-172. Type of data set: cell-based. Conditions: Escherichia coli. How it is done: as §1, §2, §3
In another data set the test system is E. coli J53. The data set can be described thus: MIC by agar dilution, recipient E. coli J53. Type of data set: cell-based. Conditions: Escherichia coli. As for the experimental part: as §1, §2
(§4) Conjugation experiments were performed by filter mating using sodium-azide-resistant E. coli J53 as the recipient, as described previously. Transconjugants were selected with MH agar containing 100 μg/mL sodium azide and 4 μg/mL ceftazidime-avibactam; furthermore, transconjugants were named J53-AR13438 and J53-KPCZA02, respectively. We compared genomes of AR13438 and J53 to select a unique gene (gtrA) to J53. The blaCMY-178-postive transconjugants were confirmed by PCR and MALDI-TOF MS (see Fig. S9 in the supplemental material). The primers used for PCR were gtrA-F, gtrA-R, CMY-F, and CMY-R (Table S1). The transfer frequencies were calculated as the number of transconjugants (CFU/mL) divided by the number of recipients (CFU/mL). Donors and recipients were mixed at 1:1 for the transfer frequency experiment. S1-PFGE and Southern blotting were performed to define the location of blaCMY-178 and confirm the transmission of the plasmid as described previously ([35]). The MIC profiles of transconjugants were also determined by the agar dilution method.

The next data set relates to E. coli J53-AR13438. Put plainly: MIC by agar dilution, conjugant containing pAR13438_2. The following applies: Escherichia coli, J53AR13438, E. coli J53-AR13438 (blaCMY-178). In kind it is cell-based. How it is done: as §1
as §4, with “The blaCMY-178-postive transconjugants were confirmed by PCR and MALDI-TOF MS (see Fig. S9 in the supplemental material).” left out

The subject of the next data set is E. coli J53-KPCZA02. The data set can be described thus: MIC by agar dilution, conjugant containing pKPCZA02_4. In kind it is cell-based. The following applies: Escherichia coli, J53KPCZA02, E. coli J53-KPCZA02 (blaCMY-172). As for the experimental part:
as §1
as §4, with “The blaCMY-178-postive transconjugants were confirmed by PCR and MALDI-TOF MS (see Fig. S9 in the supplemental material).” left out

In the next data set the target is T1, CMY-2 (Klebsiella pneumoniae, UniProt Q48434).
T1 construct: were amplified without a signal peptide and cloned into the pET28a; His8 (N); made in house; host or cells: E. coli BL21(DE3)
The data set can be described thus: Ki by direct competition assay with nitrocefin, CMY-2. Type of data set: biochemical. As for the experimental part: (§5) blaCMYs (including blaCMY-2, blaCMY-172, and blaCMY-178) were amplified without a signal peptide and cloned into the pET28a, which led to the introduction of an N-terminal His8-Tag.The recombinant plasmids were transformed into E. coli BL21(DE3) and selected using Sanger sequencing. Lysogenic broth containing 50 μg/mL kanamycin was inoculated with transformants and grown to reach an OD600 of 0.6. A final concentration of 1 mM isopropyl-β-D-thiogalactopyranoside (IPTG) was added into the resulting culture, which was shaken at 18°C overnight. The culture broth was centrifuged to harvest bacteria. The pellet was resuspended in lysis buffer (50 mM Tris-HCl and 300 mM NaCl (pH 7.5)) and disrupted using a JN-02C French press (JNBIO, Guangzhou, China) at 1,100 bar. Then, the cell debris was removed by centrifugation at 11,000 rpm for 40 min at 4°C. The supernatant was added to an Ni column, and the absorbed protein was eluted by the eluent buffer (lysis buffer with 300 mM imidazole).
(§6) Enzymatic activities were measured using a D8 UV-visible spectrophotometer (Rumqee, Shanghai, China) in phosphate-buffered saline (PBS; pH 7.2) at room temperature. Substrates tested included nitrocefin, ceftazidime, and avibactam. […] The initial reaction velocities (v) were measured and Ki values were calculated by fitting data into equation 1 with GraphPad Prism v9.0.0 ([37]). […]

The target of data set [5] is T2, CMY-172 (Klebsiella pneumoniae, UniProt Q48434, DEL310-312/N366I).
T2 construct: were amplified without a signal peptide and cloned into the pET28a; His8 (N); made in house; host or cells: E. coli BL21(DE3)
The data set can be described thus: Ki by direct competition assay with nitrocefin, CMY-172. Type of data set: biochemical. Conditions: competition with 100 μM nitrocefin, 2-min incubation, mean ± SD. As for the experimental part:
as §5, §6

In data set [6] the target is T3, CMY-178 (Klebsiella pneumoniae, UniProt Q48434, DEL310-312/N366I/N90T).
T3 construct: were amplified without a signal peptide and cloned into the pET28a; His8 (N); made in house; host or cells: E. coli BL21(DE3)
The data set can be described thus: Ki by direct competition assay with nitrocefin, CMY-178. In kind it is biochemical, Escherichia coli. Conditions: for Ki: CMY-178, competition with 100 μM nitrocefin, 2-min incubation, mean ± SD; for Increase of Ki value of CMY-178 compared with CMY-172: CMY-178 vs CMY-172. As for the experimental part:
as §5
(§7) Enzymatic activities were measured using a D8 UV-visible spectrophotometer (Rumqee, Shanghai, China) in phosphate-buffered saline (PBS; pH 7.2) at room temperature. Substrates tested included nitrocefin, ceftazidime, and avibactam. The extinction coefficient and wavelength of nitrocefin are 17,400 M^−1 · cm^−1 and 482 nm, respectively. […] The initial reaction velocities (v) were measured and Ki values were calculated by fitting data into equation 1 with GraphPad Prism v9.0.0 ([37]). (1) v=Vmax[S]/[S]+Km NCF (1+[I]/Ki)

The target of data set [7] is T2, CMY-172. Put plainly: Enzyme kinetics (substrate hydrolysis) of purified CMY-172. In kind it is biochemical. How it is done:
as §5, with “imidazole). SDS-PAGE confirmed the protein purity of the eluent (>95%), and the sample was loaded onto a pre-equilibrated Superdex 200 column to eliminate imidazole.” for “imidazole).”
as §7

Data set [8] has as its target T3, CMY-178. The data set can be described thus: Enzyme kinetics (substrate hydrolysis) of purified CMY-178. In kind it is biochemical, Escherichia coli. As for the experimental part:
as §5, with “imidazole). SDS-PAGE confirmed the protein purity of the eluent (>95%), and the sample was loaded onto a pre-equilibrated Superdex 200 column to eliminate imidazole.” for “imidazole).”
as §7

Data set [9] deals with O=C(Cc1cccs1)N[C@@H]1C(=O)N2C(C(=O)O)=C(/C=C/c3ccc([N+](=O)[O-])cc3[N+](=O)[O-])CS[C@H]12. Put plainly: Enzyme kinetics (substrate hydrolysis) of purified CMY-2. The following applies: other: CMY-2, PBS pH 7.2, room temperature, mean ± SD, three experiments. Type of data set: biochemical. As for the experimental part: as §5, with “imidazole). SDS-PAGE confirmed the protein purity of the eluent (>95%), and the sample was loaded onto a pre-equilibrated Superdex 200 column to eliminate imidazole.” for “imidazole).”
as §7

[10] abbreviates: CMY-172, PBS pH 7.2, room temperature, mean ± SD, three experiments.
Where [11] appears, read: CMY-178, PBS pH 7.2, room temperature, mean ± SD, three experiments.

≈ marks a conversion by molar mass, not a printed value. Like-named read-outs stand apart in the source and are kept apart here.

Broadly, the Ki is a dissociation constant, usually derived from enzyme kinetics or from competition with a known ligand. In the case of `CC(C)(O/N=C(\C(=O)N[C@@H]1C(=O)N2C(C(=O)[O-])=C(C[n+]3ccccc3)CS[C@H]12)c1csc(N)n1)C(=O)O` [CAZ, ceftazidime], the MIC was 2050 µg/mL (≈ 3750 µM) against E. coli strain AR13438; 2050 µg/mL (≈ 3750 µM) in [1]; 0.25 µg/mL (≈ 0.457 µM) in the data set on E. coli DH5α; 0.25 µg/mL (≈ 0.457 µM) against E. coli DH5α-pCR2.1; 256 µg/mL (≈ 468 µM) in data set [2]; > 2050 µg/mL in [3] (Escherichia coli, E. coli DH5α-pCR2.1-CMY-178, agar dilution). The MIC in data set [4] was 512 µg/mL (≈ 937 µM); in the data set on E. coli J53, 0.25 µg/mL (≈ 0.457 µM); against E. coli J53-AR13438, 1020 µg/mL (≈ 1870 µM); in the data set on E. coli J53-KPCZA02, 512 µg/mL (≈ 937 µM). The “Increase of MIC by blaCMY-178 compared with blaCMY-172” value in [3] (transformants in E. coli DH5α) is given as “over 4 fold”. The inhibition constant Ki at CMY-2 (CMY-2, competition with 100 μM nitrocefin, 2-min incubation, mean ± SD, read-out: Ki) was determined as 32.1 nM; at CMY-172 [5], 1.06 nM; on CMY-178 [6], 9.27 nM. Moreover, the “Increase of Ki value of CMY-178 compared with CMY-172” value at CMY-178 [6] is on record as ~ 5 fold.
Usually Km stands for the concentration of substrate that gives half-maximal velocity. `O=C(Cc1cccs1)N[C@@H]1C(=O)N2C(C(=O)O)=C(/C=C/c3ccc([N+](=O)[O-])cc3[N+](=O)[O-])CS[C@H]12` [NCF, nitrocefin]: the Kcat was determined as 52.41 ± 2.65 s⁻¹ at CMY-172 [7] (setting [10]) and 55.81 ± 1.04 s⁻¹ on CMY-178 [8] (setting [11]). Besides, the Km on CMY-172 [7] (setting [10]) was determined as 12 ± 0.66 µM; at CMY-178 [8] (setting [11]), 12.5 ± 0.31 µM. For the same molecule, the “Decrease of kcat/Km compared with CMY-2” value at CMY-172 [7] (CMY-172 vs CMY-2) and at CMY-178 [8] (CMY-178 vs CMY-2) was “approximately 3 fold” throughout.
One may read the kcat as the number of substrate molecules converted per active site and unit of time at saturation. In general, kcat/Km refers to the second-order rate constant that governs catalysis at low substrate concentration. With CMY-2 (Klebsiella pneumoniae), in data set [9], the Km came to 59.88 ± 2.59 µM, the kcat came to 732 ± 16.1 s⁻¹ and the catalytic efficiency (kcat/Km) was determined as 1.22e+07 ± 600000 M⁻¹ s⁻¹.
`C[C@]1(Cn2ccnn2)[C@H](C(=O)O)N2C(=O)C[C@H]2S1(=O)=O` [TAZ, tazobactam]: the inhibitory constant (Ki) amounted to 760 ± 70 nM at CMY-2, 2120 ± 340 nM on CMY-172 [5] and 2490 ± 510 nM on CMY-178 [6]. In addition, the “Increase of Ki value of CMY-178 compared with CMY-172” value on CMY-178 [6] is reported as “less than 2 fold”.
